The values that follow come from US5989555A, “Extracts of Larrea tridentata having antiviral activity and their use for treating viral infections” (priority 1996, dated 1999).

The subject of assay [1] is HIV-1 Tat protein. As to the kind of experiment: cells. The format is cell-based. The note with it: Table 3, samples run in duplicate, each value mean of two determinations; for inhibition at 10 µg/mL / inhibition at 30 µg/mL: Human immunodeficiency virus 1, COS; for inhibition at 10 µg/mL: read-out: % Inhibition of Tat Transactivation, 10 μg/ml; for inhibition at 30 µg/mL: read-out: % Inhibition of Tat Transactivation, 30 μg/ml. Here is the method:
[…] P. Loeffler and J. P. Behr, Meth. Enzymol. 217:599 (1993)). Cells were incubated for 12-15 hours after transfection before the extract was added at the various concentrations noted. The cultures were incubated for 48 hours, after which 250 μl of the culture supernatant was assayed for SEAP activity as described in Example 4.
The SEAP Assay. The "SEcreted Alkaline Phosphatase" assay for Tat transactivation has been described previously (Berger et al., Gene 66:1-10, 1988; Bohan et al., Gene Expression 2(4):391-407, 1992). The details of the entire procedure for the SEAP inhibition assay as used herein have been described (Gnabre et al. Journal of Chromatography A 719:353-364 (1996)).
The secreted alkaline phosphatase analysis was performed as originally described by Berger et al. In this assay, a DNA expression vector wherein a structural gene encoding a secreted alkaline phosphatase is driven by an enhancer-linked promoter is transfected into target cells. The cells are then exposed to compounds which affect the binding/activation of the transcription regulatory proteins, and the amount of SEAP activity in the medium is measured.
As to the alkaline phosphatase assay, briefly, a 250-μl aliquot was removed from COS cell culture supernatants, heated at 65° C. for 5 minutes to selectively inactivate endogenous phosphatase (SEAP is heat stable) and centrifuged in a microfuge for 2 minutes. […] of 2×SEAP assay buffer (1.0 M diethanolamine, pH 9.8; 0.5 mM MgCl2; 10 mM L-homoarginine) was added to 100-μl aliquot of the samples. The solution was mixed and transferred into a 96-well flat-bottom culture dish (Corning). Twenty μl of pre-warmed substrate solution (120 mM p-nitrophenylphosphate dissolved in 1×SEAP assay buffer) were dispensed with a multipipeter into each well containing the reaction mixture. The A405 of the reaction was read at 5-minute intervals at 37° C. for 60 minutes using an EL340i microplate reader (Bio-tek Instruments, Inc.) with 5-second automatic shakings before each reading. The change in absorbance was plotted against time in the standard assay of SEAP induction. In the drug screening assay, the percent inhibition of SEAP expression was calculated at its 30 min endpoint as follows:
% Inhibition=100-[(CT^+ -C^+)/(CT^- -C^-)]×100
The 3-Magi extract was monitored by SiO2 TLC with cerium sulfate charring, 2% CeSO4 (w/V) in 5.6% H2 SO4 (v/v), and by the SEAP assay for anti Tat-TRS activity. For the SEAP assay, test materials were dissolved in 10% DMSO solution made in calcium-free, magnesium-free PBS (Ca--Mg-free PBS). The suspension was centrifuged and the stock solution (10 mg/ml) was filter-sterilized using a Millex-GS […] filter (Millipore). Appropriate dilutions of the stock solution were prepared in a final DMSO concentration of 0.2% in Ca--Mg-free PBS to obtain the various concentrations of test compounds.
The 3-Magi extract prepared as in Examples 1 and 2 was assayed by the SEAP assay for anti Tat-TRS activity. […] Briefly, a day before DNA transfection, Linbro® 24 flat bottom wells of 17-mm diameter plates were pretreated with 0.5 ml sterile solution of 0.1% gelatin. The plates were kept in a tissue culture hood for 1 hour (all transfection steps were performed in the hood, unless otherwise stated). The gelatin solution was aspirated and the plates were washed with 0.5 ml of Iscove's Modified Delbecco's Medium (IMDM) supplemented with 10% fetal calf serum and antibiotics (complete medium). COS cells were seeded at a density of ≈1.5×10^5 cells per 17-mm plate and incubated in a humidified 95% air/5% CO2 incubator at 37° C. DNA transfection was performed at 50-60% cell confluency.

In assay [2] the test system is HIV-LTR. As to the kind of experiment: in vitro HIV gene transcription assay (Hela whole-cell extract, pLTR-1CAT template). The format is biochemical, HIV-1. The following applies: for CPM of run off transcription: 329 nt run off, DMSO control 625; for % Transcription (% T): DMSO control = 100. Here is the method: This procedure was utilized to test lignans from the creosote bush including Rev.10:7 lignans (FB3 and FB5).
The inhibitory activity of the lignans prepared by the large scale isolation described in FIG. 6 is shown. The activity of the cyclolignans FB3 and FB5 is highlighted. Compounds FB1, FB2 and FB4 were each tested at 100, 120, 140 μg/ml. Rev.10:7 lignans (FB3 and FB5) were tested only at 100, 120 μg/ml.
The DNA used as template was the plasmid pLTR-1CAT, which contains HIV-LTR (-453 to +126) fused to the prokaryotic chloramphenicol acetyltransferase (CAT) gene. Unlabeled nucleoside triphosphates were from Pharmacia, and [α-^32 P]UTP (400 Ci/mmol) from Amersham.
DNA digests were then subjected to twice phenol-chloroform-isoamyl alcohol […] extractions and subsequently precipitated by ethanol. Hela whole-cell extracts (Manley extract) containing the polymerase and the transcription factors was prepared as previously described (Manley et al., Proc. Acad. Sci. USA 77:3855-3859 (1988)).
The transcription assay has been previously described (Bohan et al., Gene Expression 2:391-407 (1992)). Extracts prepared by the method of Manley, described above, (40 μg/reaction) and DNA template (0.4 μg/reaction)were preincubated with 0.4 μl of various concentrations of test compounds for 15 min at 30° C. The in vitro transcription buffer of Manley extract contained 10 mM HEPES (pH 7.9), 50 mM KCl, 0.5 mM EDTA, 1.5 mM […], 6.25 mM MgCl2, and 8.5% glycerol. Unlabeled nucleoside triphosphates and [α-^32 P]UTP (400 Ci/mmol) were mixed and added to the reaction mixture. The final volume of the reaction was brought to 15 μl followed by 1 hour incubation at 30° C. as illustrated in FIG. 9.
The transcription reaction was terminated by addition of 300 μl of stop solution (20 mM tris-HCl (pH 7.8), 150 mM NaCl, and 0.2% SDS), and extracted with equal volume of phenol. RNA in the aqueous phase was precipitated with 2.5 volumes of EtOH and 0.1 volume of 3 M sodium acetate. Following centrifugation, RNA pellets were washed with EtOH, dried and resuspended in 15 μl of denaturation mix containing 50% formamide:50% of 2×TBE, Xylene cyanol and bromophenol blue. The mixture was heated at 90° C. for 3 min, and electrophoresed at 400 V in 4% polyacrylamide (19:1 acrylamide:bisacrylamide) gel containing 7 M urea (prerun at 200 V for 30 min) and 1×TBE. The gel was exposed to Kodak XR-5 film at -70° C. with intensifying screens for autoradiography. Table 4 illustrates the same results in numerical form after radioactivity counts of the 329 nt run off transcription spots.

Where [3] appears, read: 140 μg/ml, estimated from Kodak film of gel after 3 day exposure.

Several values for one entry are separate records, joined by “and”; a condition that tells them apart may be missing. Equal entries are not always repeated.

“3'-demethoxy-6-dehydroxy-8-O-demethoxylisoguaiacin [FB3]”: the “% Inhibition of Tat Transactivation” value in assay [1] (30 μg/ml) was 69% and 59%. In addition, in assay [2] (100 μg/ml), the “% Inhibitor (100 - % T)” value was determined as 73%, the “CPM of run off transcription” value was 169 CPM and the “% Transcription (% T)” value is 27%. Moreover, in assay [2] (120 μg/ml), the “% Inhibitor (100 - % T)” value was 91%, the “CPM of run off transcription” value was found to be 55 CPM and the “% Transcription (% T)” value stood at 9%.

In the case of `COc1ccc(C[C@@H](C)[C@@H](C)Cc2ccc(O)c(O)c2)cc1O` [FB1, 4'-O-methyl-NDGA], the “% Inhibition of Tat Transactivation” value in assay [1] (10 μg/ml) was determined as 82%; in assay [1] (30 μg/ml), 99%. The inhibition at 10 µg/mL in assay [1] was 86%. Also, the inhibition at 30 µg/mL in assay [1] came out at 100%. In addition, the “% Inhibitor (100 - % T)” value in assay [2] (100 μg/ml) is 0%; in assay [2] (120 μg/ml), 0%; in assay [2] (setting [3]) it was over 50%. Besides, the “CPM of run off transcription” value in assay [2] (100 μg/ml) came out at 917 CPM; in assay [2] (120 μg/ml) it was 804 CPM. Moreover, the “% Transcription (% T)” value in assay [2] (100 μg/ml) turned out to be 147%; in assay [2] (120 μg/ml), 129%.

As for `COc1cc(CC(C)C(C)Cc2ccc(O)c(O)c2)ccc1O` (stereo not drawn) [FB2, 3'-O-methyl-NDGA], the “% Inhibition of Tat Transactivation” value in assay [1] (10 μg/ml) was 86%. In assay [1], the inhibition at 10 µg/mL came to 75% and the inhibition at 30 µg/mL was found to be 100%. In assay [2] (100 μg/ml), the “CPM of run off transcription” value was 972 CPM and the “% Transcription (% T)” value was 155%. Moreover, in assay [2] (120 μg/ml), the “% Inhibitor (100 - % T)” value is 0%, the “CPM of run off transcription” value is recorded as 661 CPM and the “% Transcription (% T)” value is recorded as 106%. The “% Inhibitor (100 - % T)” value in assay [2] (setting [3]) is over 90%.

For `C[C@H]1[C@H](c2ccc(O)cc2)c2cc(O)c(O)cc2C[C@H]1C` [FB5, 3'-demethoxy-6-O-demethoxylisoguaiacin], the “% Inhibition of Tat Transactivation” value in assay [1] (30 μg/ml) is on record as 87%. For the same compound, in assay [1], the inhibition at 10 µg/mL is 63% and the inhibition at 30 µg/mL was 84%. For the same compound, in assay [2] (100 μg/ml), the “% Inhibitor (100 - % T)” value stood at 40%, the “CPM of run off transcription” value was determined as 373 CPM and the “% Transcription (% T)” value is 60%. Further, in assay [2] (120 μg/ml), the “% Inhibitor (100 - % T)” value was 58%, the “CPM of run off transcription” value is listed as 264 CPM and the “% Transcription (% T)” value is given as 42%.
